Experiment: photoluminescence quantum yield (fraction); solvent given as SMILES
[1] = in O=P(c1ccccc1)(c1ccccc1)c1ccccc1Oc1ccccc1P(=O)(c1ccccc1)c1ccccc1

COc1ccc2c3c(c4ccc(OC)cc4c2c1)C(C)(C)c1c-3ccc2ccccc12
photoluminescence quantum yield (in C1CCCCC1): 0.26

c1ccc(-c2c3ccc(=[N+]4CCCCC4)cc-3oc3cc(N4CCCCC4)ccc23)cc1
photoluminescence quantum yield (in CCO): 0.3
photoluminescence quantum yield (in ClCCl): 0.89

Cc1cc(C)c([B-]2(c3c(C)cc(C)cc3C)[O+]=P(c3ccccc3)(c3ccccc3)c3cc(-c4ccc(C(C)(C)C)cc4)sc3-c3sc(-c4ccc(C(C)(C)C)cc4)cc32)c(C)c1
photoluminescence quantum yield (in C1CCOC1): 0.16

CCC1(CC)c2ccccc2-c2c1c1c(c3c2C(CC)(CC)c2cc(N(c4ccccc4)c4ccccc4)ccc2-3)C(CC)(CC)c2ccccc2-1
photoluminescence quantum yield (in C1CCOC1): 0.49

CCC(C)(C)c1ccc(-c2ccc(-c3ccccc3)cc2)cc1
photoluminescence quantum yield (in C1COCCO1): 0.65

COc1ccc(-c2cc3c(s2)c(C(C)=O)cc(=O)n3Cc2ccccc2)cc1
photoluminescence quantum yield (in CC#N): 0.61
photoluminescence quantum yield (in ClCCl): 0.99

CC(=O)c1ccn2c3c(c(/C=C/c4cc[n+](C)cc4)c2c1)CN(C)C3=O
photoluminescence quantum yield (in O): 0.041

Oc1c(-c2ccco2)cccc1-c1nc2ccccc2s1
photoluminescence quantum yield (in CCO): 0.0057
photoluminescence quantum yield (in ClCCl): 0.0137
photoluminescence quantum yield (in O): 0.01

COc1cccc(C2=C3C=C(/C=C/C(=O)OC(C)(C)C)C=[N+]3[B-](F)(F)n3cccc32)c1
photoluminescence quantum yield (in ClCCl): 0.09

CCc1ccc(-n2c3ccccc3c3cc4c(cc32)c2ccccc2n4-c2ccc(CC)s2)s1
photoluminescence quantum yield (in ClC(Cl)Cl): 0.023

CN(C)c1ccc(C2=Nc3sc4cc(F)ccc4[n+]3[B-](F)(F)O2)cc1
photoluminescence quantum yield (in C1CCOC1): 0.72
photoluminescence quantum yield (in CC#N): 0.13
photoluminescence quantum yield (in CC(C)=O): 0.23
photoluminescence quantum yield (in Cc1ccccc1): 0.85
photoluminescence quantum yield (in ClCCl): 0.74

Cc1cc(N2c3ccccc3C(C)(C)c3ccccc32)ccc1-c1cc(-c2ccc(N3c4ccccc4C(C)(C)c4ccccc43)cc2C)ncn1
photoluminescence quantum yield [1]: 0.71

CC(C)(C)c1cc(/C2=C3\C=CC(=N3)/C(c3ccc([N+](=O)[O-])cc3)=c3/cc/c([nH]3)=C(\c3ccc([N+](=O)[O-])cc3)C3=N/C(=C(/c4cc(C(C)(C)C)cc(C(C)(C)C)c4)c4cc2c[nH]4)C=C3)cc(C(C)(C)C)c1
photoluminescence quantum yield (in CC(=O)N(C)C): 0.024

CCCCC(CC)COc1ccc2nc(-c3ccc(-c4ccccc4)s3)sc2c1 (stereo not drawn)
photoluminescence quantum yield (in ClCCl): 0.58

COc1ccc(-c2c3ccccc3c(-c3ccc(OC)cc3)c3cc4sc(C)cc4cc23)cc1
photoluminescence quantum yield (in ClCCl): 0.52

CCn1c2ccc(-c3ccc(-c4cccs4)s3)cc2c2cc(-c3ccc(-c4cccs4)s3)ccc21
photoluminescence quantum yield (in ClCCl): 0.168

CC1(C)c2ccccc2N(c2ccc(-c3ccc4c(c3)c3cc(-c5ccc(N6c7ccccc7C(C)(C)c7ccccc76)cc5)ccc3c3nc(C#N)c(C#N)nc43)cc2)c2ccccc21
photoluminescence quantum yield (in Cc1ccccc1): 0.33
photoluminescence quantum yield (in O=P(c1ccccc1)(c1ccccc1)c1cccc(-c2cc(-n3c4ccccc4c4ccccc43)cc(-n3c4ccccc4c4ccccc43)c2)n1): 0.65

CCCCCCCCC1(CCCCCCCC)c2ccccc2-c2ccc(-c3nnc(-c4ccc(-n5c6ccc(C(C)(C)C)cc6c6cc(C(C)(C)C)ccc65)cc4)o3)cc21
photoluminescence quantum yield (in Cc1ccccc1): 0.88

COc1ccc(C2=C3C=C(/C=C/C(=O)OC(C)(C)C)C=[N+]3[B-](F)(F)n3cccc32)cc1
photoluminescence quantum yield (in ClCCl): 0.13

COc1ccc2c(c1)N(c1ccccc1-c1ccccc1)c1cc3c(cc1=N2)Oc1c(cc(C(C)(C)C)cc1C(C)(C)C)N=3
photoluminescence quantum yield (in CCCCCC): 0.34

c1ccc(-c2cnc3nn4ccccc4c3c2)cc1
photoluminescence quantum yield (in C1CCOC1): 0.38

Cc1c2ccc3c(C)[n+](C)ccc3c2cc[n+]1C
photoluminescence quantum yield (in CC#N): 0.38

COc1ccc2n1[B-](F)(F)[N+]1=C(c3ccccc3)C=CC1=C2c1ccc(C)cc1
photoluminescence quantum yield (in C1CCCCC1): 0.28
photoluminescence quantum yield (in C1CCOC1): 0.3
photoluminescence quantum yield (in C1COCCO1): 0.36
photoluminescence quantum yield (in CCOC(C)=O): 0.28
photoluminescence quantum yield (in CO): 0.23
photoluminescence quantum yield (in Cc1ccccc1): 0.51
photoluminescence quantum yield (in ClC(Cl)Cl): 0.38

c1ccc(N(c2ccccc2)c2ccc(-c3ccc4c(c3)C3(c5cc(-c6ccc(N(c7ccccc7)c7ccccc7)cc6)ccc5-4)c4ccccc4N(c4ccccc4)c4ccccc43)cc2)cc1
photoluminescence quantum yield (in ClCCl): 0.82
photoluminescence quantum yield (in c1cc(-n2c3ccccc3c3ccccc32)cc(-n2c3ccccc3c3ccccc32)c1): 0.86

Cc1ccc(C2=C3C=C(I)C(I)=[N+]3[B-](F)(F)n3c2cc(I)c3I)cc1
photoluminescence quantum yield (in C1CCCCC1): 0.099
photoluminescence quantum yield (in CC#N): 0.058
photoluminescence quantum yield (in CCO): 0.067
photoluminescence quantum yield (in CCOC(C)=O): 0.073
photoluminescence quantum yield (in CO): 0.061
photoluminescence quantum yield (in OCC(F)(F)F): 0.059

CCCCCCn1c2cc(/C=C(\C#N)c3ccccc3)ccc2c2ccc(/C=C(\C#N)c3ccccc3)cc21
photoluminescence quantum yield (in ClC(Cl)Cl): 0.026

c1ccc(-c2nc(-c3ccccc3)nc(-c3cc(-n4c5ccccc5c5ccccc54)c(-n4c5ccccc5c5ccccc54)c(-n4c5ccccc5c5ccccc54)c3)n2)cc1
photoluminescence quantum yield (in O=P(c1ccccc1)(c1ccccc1)c1ccc2oc3ccc(P(=O)(c4ccccc4)c4ccccc4)cc3c2c1): 0.82
photoluminescence quantum yield [1]: 1

O=C1c2ccc(-c3ccc(N(c4ccccc4)c4ccccc4)cc3)cc2C(=O)c2ccc(-c3ccc(N(c4ccccc4)c4ccccc4)cc3)cc21
photoluminescence quantum yield (in Cc1ccccc1): 0.59
photoluminescence quantum yield (in c1ccc2c(c1)c1ccccc1n2-c1ccc(-c2ccc(-n3c4ccccc4c4ccccc43)cc2)cc1): 0.8

CC/[NH+]=c1\cc2oc3cc(NCCC(=O)NCCCCC(NC(C)=O)C(=O)OC)c4ccccc4c3nc-2cc1C (stereo not drawn)
photoluminescence quantum yield (in CCO): 0.32
photoluminescence quantum yield (in O): 0.46

CCC1(CC)c2cc(B(c3c(C)cc(C)cc3C)c3c(C)cc(C)cc3C)ccc2-c2c1c1c(c3c2C(CC)(CC)c2cc(N(c4ccccc4)c4ccccc4)ccc2-3)C(CC)(CC)c2cc(B(c3c(C)cc(C)cc3C)c3c(C)cc(C)cc3C)ccc2-1
photoluminescence quantum yield (in C1CCOC1): 0.2

COc1ccc(C(=O)NC(C)(C)C)c2c1ccc1c3ccccc3c3ccccc3c12
photoluminescence quantum yield (in ClCCl): 0.1

COc1ccc(-c2ccc(-c3ccc(F)cc3)cc2)cc1
photoluminescence quantum yield (in C1COCCO1): 0.57

c1ccc2c(C3=C(c4cccc5ccccc45)c4cccc5c4c(cc4nc6ccccc6nc45)O3)cccc2c1
photoluminescence quantum yield (in ClCCl): 0.32

CC(C)(C)c1cc2ccc3c(N(c4ccccc4)c4ccccc4)cc(N(c4ccccc4)c4ccccc4)c4ccc(c1)c2c34
photoluminescence quantum yield (in ClCCl): 0.82

COc1ccc(-c2nc(-c3cccc(OC)c3)[nH]c2-c2ccc(OC)cc2)cc1
photoluminescence quantum yield (in CO): 0.25

CCN(CC)c1ccc2cc(-c3nc4cc(C(=O)Nc5ccccc5)ccc4o3)c(=O)oc2c1
photoluminescence quantum yield (in ClCCl): 0.35

CCCN1c2ccccc2Sc2cc(/C=C\c3cc(=O)oc4cc(C)c(Cl)cc34)ccc21
photoluminescence quantum yield (in ClC(Cl)Cl): 0.77

c1ccc(N2c3ccccc3Sc3cc(-c4cccc5nc6ccccc6cc45)ccc32)cc1
photoluminescence quantum yield (in CC#N): 0.0076
photoluminescence quantum yield (in CCCCCC): 0.213
photoluminescence quantum yield (in CCOCC): 0.17
photoluminescence quantum yield (in ClCCl): 0.0635

Clc1nc(Cl)nc(Nc2ccc3cc4ccccc4cc3c2)n1
photoluminescence quantum yield (in C1COCCO1): 0
photoluminescence quantum yield (in CC#N): 0
photoluminescence quantum yield (in CCCCOCCCC): 0
photoluminescence quantum yield (in CCOC(C)=O): 0

N#Cc1cccc(C#N)c1-n1c2ccccc2c2cc(-c3ccc4c(c3)c3ccccc3n4-c3c(C#N)cccc3C#N)ccc21
photoluminescence quantum yield (in Cc1ccccc1): 0.72
photoluminescence quantum yield [1]: 0.72

CCN(CC)c1ccc2c(c1)oc(=O)c1cc3c(-c4ccccc4)nn(C)c3nc12
photoluminescence quantum yield (in C1CCCCC1): 0.338
photoluminescence quantum yield (in CCOC(C)=O): 0.202
photoluminescence quantum yield (in CN(C)C=O): 0.015
photoluminescence quantum yield (in CO): 0.002
photoluminescence quantum yield (in ClCCl): 0.292

C[Si]1(C)c2ccccc2-c2ccccc21
photoluminescence quantum yield (in ClCCl): 0.14

N#Cc1cc2ccc(cc2)c2cccc3cccc(c4ccc(cc4)cc(C#N)c4ccc(cc4)c4cccc5cccc(c6ccc1cc6)c54)c32
photoluminescence quantum yield (in Cc1ccccc1): 0.55

CCn1c(=O)nc2n(C)c3cc(C)ccc3nc-2c1=O
photoluminescence quantum yield (in C1COCCO1): 0.14
photoluminescence quantum yield (in CC#N): 0.14
photoluminescence quantum yield (in CO): 0.11
photoluminescence quantum yield (in ClCCCl): 0.12

CN(C)c1ccc(C(=O)Nc2ccc(Cl)cc2)cc1
photoluminescence quantum yield (in C1CCCCC1): 0.0011
photoluminescence quantum yield (in C1CCOC1): 0.0101
photoluminescence quantum yield (in CC#N): 0.0171
photoluminescence quantum yield (in CCOCC): 0.005

CC(=O)N(Cc1ccccn1)c1c2ccccc2c2c3c(cccc13)C(=O)N(Cc1ccccn1)C2=O
photoluminescence quantum yield (in C1CCOC1): 0.36
photoluminescence quantum yield (in CCCCCC): 0.59
photoluminescence quantum yield (in CCO): 0.35
photoluminescence quantum yield (in Cc1ccccc1): 0.52
photoluminescence quantum yield (in ClCCl): 0.48

O=c1c2cc3ccc4cccc5ccc(c2c(=O)n1-c1ccccc1)c3c45
photoluminescence quantum yield (in ClC(Cl)Cl): 0.5

COc1cc(/C=C/C(=O)O)ccc1O
photoluminescence quantum yield (in O): 0.002

CN1/C(=C\C=C\C2=C3C=CC(c4ccccc4)=[N+]3[B-](F)(F)n3c2ccc3-c2ccccc2)C(C)(C)c2ccccc21
photoluminescence quantum yield (in CC#N): 0.1

CN(C)c1ccc(/C=C/c2cc(/C=C/c3ccc(N(C)C)cc3)nc(N)n2)cc1
photoluminescence quantum yield (in Cc1ccccc1): 0.65
photoluminescence quantum yield (in ClC(Cl)Cl): 0.55

CCCCCCCCCCOc1cc(OCCCCCCCCCC)cc(C2=C3C(C)=CC(/C=C/c4ccc(OC)cc4)=[N+]3[B-](F)(F)n3c(/C=C/c4ccc(OC)cc4)cc(C=Cc4ccc(OC)cc4)c32)c1
photoluminescence quantum yield (in ClC(Cl)Cl): 0.35

COc1ccc(-n2nc(C#N)c(N3CCN(c4ccccn4)CC3)n2)cc1
photoluminescence quantum yield (in CC#N): 0.064

c1ccc2cc3c4c(ccc3cc2c1)-c1cccc2cccc-4c12
photoluminescence quantum yield (in CCCCCCC): 0.023

Cc1ccc(-c2ccc(/C=C/c3ccc([N+](=O)[O-])cc3)cn2)nc1
photoluminescence quantum yield (in CC#N): 0.045

CCn1c2ccccc2c2cc(C#Cc3cc(C#Cc4ccc5c(c4)c4ccccc4n5CC)nc(S(C)(=O)=O)n3)ccc21
photoluminescence quantum yield (in C1CCOC1): 0.74
photoluminescence quantum yield (in CCOC(C)=O): 0.75
photoluminescence quantum yield (in CN(C)C=O): 0.59
photoluminescence quantum yield (in Cc1ccccc1): 0.81
photoluminescence quantum yield (in ClCCl): 0.46

N#CC1=C(c2ccc(-c3cccs3)s2)CC1
photoluminescence quantum yield (in CCO): 0.18

CC[N+]1=C(/C=C/C=C/C=C/C=C2/N(CCCCCC(=O)O)c3ccc(S(=O)(=O)[O-])cc3C2(C)C)C(C)(C)c2cc(S(=O)(=O)[O-])ccc21
photoluminescence quantum yield (in CO): 0.52
photoluminescence quantum yield (in O): 0.28

Source: the Deep4Chem optical property database
